Experimental data from publication PMC9415638, “Discovery of novel thiazolyl-pyrazolines as dual EGFR and VEGFR-2 inhibitors endowed with in vitro antitumor activity towards non-small lung cancer” (Journal of Enzyme Inhibition and Medicinal Chemistry, 2022).
Read-outs that look alike come from different tables or passages of the source.

Key:
EGFR = EGFR (Homo sapiens, UniProt P00533); test: EGFR kinase assay (PGT-coated 96-well plates); assay type: biochemical; settings: read-out: IC50 (nM) ± SEM EGFR
Chain of EGFR (P00533 25-1210): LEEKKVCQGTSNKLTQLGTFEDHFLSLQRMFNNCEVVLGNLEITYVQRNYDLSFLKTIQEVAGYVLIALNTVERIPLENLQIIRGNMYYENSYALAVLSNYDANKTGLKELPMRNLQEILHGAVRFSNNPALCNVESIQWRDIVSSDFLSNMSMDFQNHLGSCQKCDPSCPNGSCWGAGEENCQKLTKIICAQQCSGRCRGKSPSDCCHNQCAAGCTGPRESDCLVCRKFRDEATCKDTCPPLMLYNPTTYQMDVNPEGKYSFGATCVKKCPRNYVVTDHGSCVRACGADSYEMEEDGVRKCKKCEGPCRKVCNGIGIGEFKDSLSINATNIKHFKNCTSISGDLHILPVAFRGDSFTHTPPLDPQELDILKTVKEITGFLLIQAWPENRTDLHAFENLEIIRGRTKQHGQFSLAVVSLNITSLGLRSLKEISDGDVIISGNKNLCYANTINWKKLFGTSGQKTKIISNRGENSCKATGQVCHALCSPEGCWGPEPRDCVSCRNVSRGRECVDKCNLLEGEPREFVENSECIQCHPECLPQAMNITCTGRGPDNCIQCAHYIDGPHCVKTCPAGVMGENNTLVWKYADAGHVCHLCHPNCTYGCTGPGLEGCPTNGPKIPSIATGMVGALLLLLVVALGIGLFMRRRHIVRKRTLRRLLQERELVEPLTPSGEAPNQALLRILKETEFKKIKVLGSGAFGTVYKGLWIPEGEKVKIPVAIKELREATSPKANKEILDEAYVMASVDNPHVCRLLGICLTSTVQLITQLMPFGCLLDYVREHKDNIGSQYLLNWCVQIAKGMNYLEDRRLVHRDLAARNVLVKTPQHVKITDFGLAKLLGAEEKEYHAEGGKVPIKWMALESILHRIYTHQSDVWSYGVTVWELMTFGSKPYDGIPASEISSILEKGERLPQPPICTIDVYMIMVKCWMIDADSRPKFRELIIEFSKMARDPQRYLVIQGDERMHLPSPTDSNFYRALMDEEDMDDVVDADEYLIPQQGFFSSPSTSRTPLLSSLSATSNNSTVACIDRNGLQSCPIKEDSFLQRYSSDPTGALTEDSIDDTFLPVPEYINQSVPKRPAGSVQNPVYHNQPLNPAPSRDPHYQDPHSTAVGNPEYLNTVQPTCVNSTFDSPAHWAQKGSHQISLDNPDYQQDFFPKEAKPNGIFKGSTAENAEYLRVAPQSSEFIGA
Procedure: (§1) The EGFR kinase assay was carried out in 96-well plates coated with PGT (poly l-glutamic acid l-tyrosine, 4:1, Sigma Aldrich, St. Louis, MO) as previously described. IC50 values were calculated using GraphPad Prism 5. Each experiment was carried out at least three times. The VEGFR-2 kinase assay was carried out in 96-well streptavidin coated plate using recombinant human VEGFR-2/KDR ELISA kit according to manufacturer’s instructions.

[1] = biological target: T1, recombinant human VEGFR-2/KDR (Homo sapiens, UniProt P35968); test: VEGFR-2 kinase assay (VEGFR-2/KDR ELISA kit); assay type: biochemical; settings: read-out: IC50 (nM) ± SEM VEGFR-2
T1 construct: purchased
T1 sequence (P35968 20-1356): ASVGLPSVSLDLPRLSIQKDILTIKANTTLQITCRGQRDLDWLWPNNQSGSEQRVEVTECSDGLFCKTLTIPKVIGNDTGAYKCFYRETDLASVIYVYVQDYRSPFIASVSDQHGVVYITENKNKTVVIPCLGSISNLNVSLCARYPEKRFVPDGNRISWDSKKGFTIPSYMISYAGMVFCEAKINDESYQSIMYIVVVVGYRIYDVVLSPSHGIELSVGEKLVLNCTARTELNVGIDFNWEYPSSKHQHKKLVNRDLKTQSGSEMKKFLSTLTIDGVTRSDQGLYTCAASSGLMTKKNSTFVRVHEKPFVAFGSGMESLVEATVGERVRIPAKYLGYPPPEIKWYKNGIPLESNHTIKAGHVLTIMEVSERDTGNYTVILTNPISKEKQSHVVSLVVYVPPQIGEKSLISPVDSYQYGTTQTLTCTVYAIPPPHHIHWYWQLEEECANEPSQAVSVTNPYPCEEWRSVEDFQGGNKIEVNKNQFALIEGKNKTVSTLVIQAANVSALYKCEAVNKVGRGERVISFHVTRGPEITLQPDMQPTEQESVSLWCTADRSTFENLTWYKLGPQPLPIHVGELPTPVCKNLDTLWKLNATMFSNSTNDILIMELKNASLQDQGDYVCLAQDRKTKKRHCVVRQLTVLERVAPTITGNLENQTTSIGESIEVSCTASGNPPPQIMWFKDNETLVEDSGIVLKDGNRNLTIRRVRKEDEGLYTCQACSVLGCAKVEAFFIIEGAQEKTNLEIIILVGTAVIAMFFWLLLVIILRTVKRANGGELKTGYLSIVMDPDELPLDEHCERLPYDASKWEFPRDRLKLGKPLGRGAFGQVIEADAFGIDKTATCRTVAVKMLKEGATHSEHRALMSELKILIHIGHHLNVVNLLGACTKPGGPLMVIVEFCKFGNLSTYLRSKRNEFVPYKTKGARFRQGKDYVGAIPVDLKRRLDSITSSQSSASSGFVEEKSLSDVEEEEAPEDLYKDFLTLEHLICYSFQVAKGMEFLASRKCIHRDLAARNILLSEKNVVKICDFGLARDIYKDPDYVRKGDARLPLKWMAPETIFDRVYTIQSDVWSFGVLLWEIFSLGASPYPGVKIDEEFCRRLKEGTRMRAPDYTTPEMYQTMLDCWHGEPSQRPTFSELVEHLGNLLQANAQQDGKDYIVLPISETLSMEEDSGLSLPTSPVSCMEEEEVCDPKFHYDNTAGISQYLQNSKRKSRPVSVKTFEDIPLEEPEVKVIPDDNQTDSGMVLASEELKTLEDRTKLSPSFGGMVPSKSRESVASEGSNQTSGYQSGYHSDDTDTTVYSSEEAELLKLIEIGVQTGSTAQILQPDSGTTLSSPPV
Procedure: as §1

[2] = test system: BT-549 breast cancer cells; test: Anti-proliferative MTT assay; assay type: cell-based; settings: Homo sapiens, 24 h, read-out: % Growth inhibition ± SEM BT-549
Procedure: (§2) To evaluate the anti-proliferative activity of the synthesised thiazolyl-pyrazoline derivatives (7a–7d, 10a–10d, and 13a–13f), a preliminary in vitro one dose (10 µM) anticancer assay was performed. Nine cell lines derived from five tumour subpanels were examined; leukaemia (K562 and KG-1a), breast (MCF-7, BT-549 and HCC70), lung (A549 and H441), colon (HCT116) and liver (HepG2) cancer cell lines. The compounds were added at a single concentration (10 µM) and the cultures were incubated for 24 h, then the per cent growth inhibition (%GI) was calculated.
(§3) Human leukaemia (K562 and KG-1a), breast (MCF-7, BT-549 and HCC70), lung (A549, H441, NCI-H1650 and NCI-H1975), colon (HCT116), liver (HepG2) cancer cell lines and WI-38 human lung fibroblast cell line were obtained from the American Type Culture Collection (ATCC; Manassas, VA) and were cultured in their suitable media containing 10% foetal bovine serum (FBS; Sigma-Aldrich) in a humidified atmosphere with 5% CO2 at 37 °C. Gefitinib and vandetanib were purchased from Sigma-Aldrich. All chemicals used in this study were analytical or cell-culture grade.
(§4) Cytotoxicity was measured using the MTT assay. Human leukaemia (K562 and KG-1a), breast (MCF-7, BT-549 and HCC70), lung (A549, H441, NCI-H1650 and NCI-H1975), colon (HCT116), liver (HepG2) cancer cell lines and WI-38 human lung fibroblast cell line were plated at a density of 1 × 10^4 cells per well in 96-well plates overnight and then treated with the compounds. After 24 h treatment, 20 μL of MTT solution (2 mg/mL in phosphate-buffered saline [PBS]) was added to each well and the cells were cultured for another 4 h at 37 °C. The medium was aspirated and 150 μL DMSO was added to solubilise MTT formazan crystals. The plates were then shaken, and the optical density was determined at 570 nm using an ELISA plate reader (Model 550, Bio-Rad, Hercules, CA). At least three independent experiments were performed. The IC50 values were calculated using GraphPad Prism 5 (Version 5.01, GraphPad Software, San Diego, CA).

[3] = test system: HCC70 breast cancer cells; test: Anti-proliferative MTT assay; assay type: cell-based; settings: Homo sapiens, 24 h, read-out: % Growth inhibition ± SEM HCC70
Procedure: as §2, §3, §4

[4] = test system: HCT116 colon cancer cells; test: Anti-proliferative MTT assay; assay type: cell-based; settings: Homo sapiens, HCT-116, 24 h, read-out: % Growth inhibition ± SEM HCT116
Procedure: as §2, §3, §4

HepG2 liver cancer cells = test: Anti-proliferative MTT assay; assay type: cell-based; settings: Homo sapiens, 24 h, read-out: % Growth inhibition ± SEM HepG2
Procedure: as §2, §3, §4

K562 leukaemia cells = test: Anti-proliferative MTT assay; assay type: cell-based; settings: Homo sapiens, 24 h, read-out: % Growth inhibition ± SEM K562
Procedure: as §2, §3, §4

KG-1a leukaemia cells = test: Anti-proliferative MTT assay; assay type: cell-based; settings: Homo sapiens, 24 h, read-out: % Growth inhibition ± SEM KG-1a
Procedure: as §2, §3, §4

[5] = test system: MCF-7 breast cancer cells; test: Anti-proliferative MTT assay; assay type: cell-based; settings: Homo sapiens, MCF7, 24 h, read-out: % Growth inhibition ± SEM MCF-7
Procedure: as §2, §3, §4

[6] = test system: WI-38 human lung fibroblast cells; test: MTT cytotoxicity assay on normal cells; assay type: cell-based; settings: Homo sapiens, WI-38; normal lung fibroblasts, MTT, 24 h, n = 3; read-out: IC50 (µM) ± SEM WI-38
Procedure: All chemicals used in this study were analytical or cell-culture grade.
Cytotoxicity was measured using the MTT assay. […] The medium was aspirated and 150 μL DMSO was added to solubilise MTT formazan crystals. The plates were then shaken, and the optical density was determined at 570 nm using an ELISA plate reader (Model 550, Bio-Rad, Hercules, CA). At least three independent experiments were performed.

A549 lung cancer cells = test: Anti-proliferative MTT assay; settings: Homo sapiens, A549, 24 h; for inhibition at 10 µM: read-out: % Growth inhibition ± SEM A549; for IC50: read-out: IC50 (µM) ± SEM A549
H441 lung cancer cells = test: Anti-proliferative MTT assay; settings: for inhibition at 10 µM: read-out: % Growth inhibition ± SEM H441
[7] = Homo sapiens, NCI-H441, 24 h, read-out: IC50 (µM) ± SEM H441, MTT, 24 h, n = 3

Row | SMILES | IC50 (EGFR) [nM] | IC50 [1] [nM] | inhibition at 10 µM [2] [%] | inhibition at 10 µM [3] [%] | inhibition at 10 µM [4] [%] | inhibition at 10 µM (HepG2 liver cancer cells) [%] | inhibition at 10 µM (K562 leukaemia cells) [%] | inhibition at 10 µM (KG-1a leukaemia cells) [%] | inhibition at 10 µM [5] [%] | IC50 [6] [µM] | melting point [°C] | inhibition at 10 µM (A549 lung cancer cells) [%] | IC50 (A549 lung cancer cells) [µM] | inhibition at 10 µM (H441 lung cancer cells; Homo sapiens, NCI-H441, 24 h) [%] | IC50 (H441 lung cancer cells; [7]) [µM] | IC50 (H441 lung cancer cells; read-out: IC50 (µM) ± SEM H441, MTT, 24 h, n = 3) [µM]
1 | COc1ccc(C2CC(c3ccc(Cl)cc3Cl)=NN2c2nc(C)c(C(C)=O)s2)cc1 (stereo not shown) [Compound 10a, 1-(2-(3-(2,4-Dichlorophenyl)-5-(4-methoxyphenyl)-4,5-dihydro-1H-pyrazol-1-yl)-4-methylthiazol-5-yl)ethan-1-one] | 274 ± 2.3 | 450 ± 8.3 | 9.4 ± 1 | 24.3 ± 2.5 | 19 ± 2.6 | 28 ± 4.3 | 12.2 ± 1.9 | 22.2 ± 1.6 | 13.6 ± 2.9 | > 100 | 205 to 207 | 32.3 ± 2.2 | 49.1 ± 3.2 | 6.3 ± 0.7 | > 100 | 
2 | COc1ccc(C2CC(c3ccc(Cl)cc3Cl)=NN2c2nc(C)c(N=Nc3ccc(C)cc3)s2)cc1OC (stereo not shown) [Compound 13e, 2-(3-(2,4-Dichlorophenyl)-5-(3,4-dimethoxyphenyl)-4,5-dihydro-1H-pyrazol-1-yl)-4-methyl-5-(p-tolyldiazenyl)thiazole] | 67.7 ± 2 | 216 ± 4.3 | 12.5 ± 1.5 | 16.1 ± 0.9 | 9.9 ± 0.8 | 0.3 | 24 ± 2 | 15.2 ± 1.8 | 1.8 ± 0.6 | 87 ± 4.2 | 176 to 177 | 30.3 ± 2.4 | 19.1 ± 1.3 | 46.9 ± 3.9 | 15.2 ± 3.6 | 
3 | COc1ccc(C2CC(c3ccc(Cl)cc3Cl)=NN2c2nc(C)c(N=Nc3ccccc3)s2)cc1OC (stereo not shown) [Compound 13d, 2-(3-(2,4-Dichlorophenyl)-5-(3,4-dimethoxyphenyl)-4,5-dihydro-1H-pyrazol-1-yl)-4-methyl-5-(phenyldiazenyl)thiazole] | 93.6 ± 3 | 336 ± 6.3 | 14.2 ± 2.2 | 22.3 ± 1.3 | 10.1 ± 3.5 | 18.6 ± 2.5 | 18.2 ± 1.8 | 24.1 ± 2.7 | 11.9 ± 1.8 | 64.2 ± 2.8 | 187 to 188 | 12.6 ± 2.7 | 57.1 ± 4.1 | 38.9 ± 2.4 | 21.7 ± 1.3 | 
4 | COc1ccc(C2CC(c3ccc(Cl)cc3Cl)=NN2c2nc(C)c(N=Nc3ccccc3)s2)cc1 (stereo not shown) [Compound 13a, 2-(3-(2,4-Dichlorophenyl)-5-(4-methoxyphenyl)-4,5-dihydro-1H-pyrazol-1-yl)-4-methyl-5-(phenyldiazenyl)thiazole] | 973 ± 2 | 1151 ± 4.3 | 10.3 ± 1.1 | 15.3 ± 1.4 | 19.5 ± 1.4 | 15.8 ± 2.2 | 2.2 ± 0.2 | 4.1 ± 0.9 | 17.8 ± 1 | > 100 | 168 to 170 | 11 ± 0.8 | > 100 | 22.2 ± 0.9 | > 100 | 94.4 ± 5.5
5 | COc1ccc(C2CC(c3ccc(Cl)cc3Cl)=NN2c2nc(C)c(C(=O)Nc3ccccc3)s2)cc1 (stereo not shown) [Compound 10c, 2-(3-(2,4-Dichlorophenyl)-5-(4-methoxyphenyl)-4,5-dihydro-1H-pyrazol-1-yl)-4-methyl-N-phenylthiazole-5-carboxamide] | 130.7 ± 1.1 | 102 ± 4.3 | 22.3 ± 0.8 | 18.3 ± 1.6 | 7.9 ± 1.1 | 11.9 ± 1.1 | 11.2 ± 1 | 9.1 ± 1 | 2.5 ± 0.8 | > 100 | 195 to 197 | 28.9 ± 2 | 23.5 ± 1.3 | 8.7 ± 0.1 | 45.2 ± 2.3 | 
6 | COc1cc2c(Nc3ccc(Br)cc3F)ncnc2cc1OCC1CCN(C)CC1 [Vandetanib, reference compound] |  |  |  |  |  |  |  |  |  | 8.6 ± 0.4 |  |  | 3.4 ± 1 |  | 3.9 ± 0.8 | 
7 | COc1ccc(C2CC(c3ccc(Cl)cc3Cl)=NN2c2nc(-c3ccccc3)cs2)cc1OC (stereo not shown) [Compound 7c, 2-(3-(2,4-Dichlorophenyl)-5-(3,4-dimethoxyphenyl)-4,5-dihydro-1H-pyrazol-1-yl)-4-phenylthiazole] | 511.2 ± 3.2 | 915.2 ± 4.3 | 3.1 ± 0.6 | 7.3 ± 1.2 | 4.9 ± 0.8 | 17.1 ± 2.7 | 5.2 ± 0.5 | 4.3 ± 0.7 | 9.2 ± 0.9 | > 100 | 120 to 122 | 8.9 ± 1.1 | > 100 | 16.2 ± 0.3 | > 100 | 
